From PubChem BioAssay (NCI)
Where “and” joins values, the source holds several entries; their conditions need not be identical. Equal entries are not always repeated.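 Method: 48-hour compound exposure of cells in 96-well plates, five concentrations, linear interpolation of endpoints. The concentration for 50% growth inhibition is given as GI50. TGI denotes the concentration required for complete inhibition of growth.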

Legend:
Experiment in all cases: growth of human tumour cells (NCI), 48 h
SK-MEL-2 melanoma = tested on: SK-MEL-2 melanoma
COLO 205 colon = tested on: COLO 205 colon
OVCAR-4 ovarian = tested on: OVCAR-4 ovarian
HCT-15 colon = tested on: HCT-15 colon
SK-MEL-5 melanoma = tested on: SK-MEL-5 melanoma
LOX IMVI melanoma = tested on: LOX IMVI melanoma
RXF 393 renal = tested on: RXF 393 renal
SF-539 CNS = tested on: SF-539 CNS
SK-OV-3 ovarian = tested on: SK-OV-3 ovarian
TK-10 renal = tested on: TK-10 renal
EKVX NSCLC = tested on: EKVX NSCLC
SR leukemia = tested on: SR leukemia
NCI/ADR-RES ovarian = tested on: NCI/ADR-RES ovarian
MDA-MB-435 = tested on: MDA-MB-435

| SMILES | TGI (SK-MEL-2 melanoma) [µM] | TGI (COLO 205 colon) [µM] | TGI (OVCAR-4 ovarian) [µM] | TGI (HCT-15 colon) [µM] | TGI (SK-MEL-5 melanoma) [µM] | TGI (LOX IMVI melanoma) [µM] | TGI (RXF 393 renal) [µM] | TGI (SF-539 CNS) [µM] | TGI (SK-OV-3 ovarian) [µM] | TGI (TK-10 renal) | TGI (EKVX NSCLC) [µM] | TGI (SR leukemia) [µM] | TGI (NCI/ADR-RES ovarian) [µM] | GI50 (SK-MEL-2 melanoma) | TGI (MDA-MB-435) [µM] | GI50 (OVCAR-4 ovarian) | GI50 (LOX IMVI melanoma) | GI50 (TK-10 renal) | GI50 (SR leukemia) |
| --- | --- | --- | --- | --- | --- | --- | --- | --- | --- | --- | --- | --- | --- | --- | --- | --- | --- | --- | --- |
| Cc1ccccc1NC(=O)CSc1nnc(Cc2ccccc2)o1 | > 100 | > 100 | > 100 | > 100 | > 100 | > 100 | > 100 | > 100 | > 100 | > 100 µM |  |  |  |  |  |  |  |  |  |
| COc1ccc(/C=C(\Cl)c2ccc(OC)cc2)cc1 |  | > 100 | > 100 |  | > 100 | > 100 |  | > 100 | > 100 | > 100 µM | > 100 | > 100 |  |  |  |  |  |  |  |
| CC[C@H](C)[C@H]1NC(=O)[C@@H](NC(=O)[C@@H](CC(C)C)N(C)C(=O)C2CCCN2C(=O)[C@H](C)O)[C@@H](C)OC(=O)[C@H](Cc2ccccc2)N(C)C(=O)[C@@H]2CCCN2C(=O)[C@H](CC(C)C)NC(=O)[C@@H](C)C(=O)[C@H](C(C)C)OC(=O)C[C@@H]1O (stereo partly drawn) | 0.0954 | 0.0769 | 0.0078 | 0.556 |  | < 0.00625 | 0.0179 |  | 0.101 | 0.00848 µM | 0.524 |  | 1.6 |  |  |  |  |  |  |
| CC(Nc1n[nH]c(=O)c2c1nnn2Cc1ccccc1)c1ccccc1 (stereo not drawn) | > 100 | > 100 | > 100 | > 100 | > 100 | > 100 |  |  |  | > 100 µM and 64.7 µM | > 100 | > 100 | > 100 | > 100 µM and 41.5 µM | > 100 | > 100 µM and 26.8 µM | > 100 µM and 32.7 µM | 89.3 µM and 23.4 µM | > 100 µM and 48 µM |
| CSc1nc(-c2ccc(Cl)cc2)c(C#N)c(=O)[nH]1 | > 100 | > 100 | > 100 | > 100 | > 100 |  | > 100 | > 100 | > 100 | > 100 µM | > 100 |  | > 100 |  | > 100 |  |  |  |  |
| CCCCCCC(=O)OC[n+]1cccc(-c2c(COC(=O)NC(C)C)c(COC(=O)NC(C)C)c3n2CCC3)c1 | 60.4 | > 100 | > 69.1 | > 100 | > 88.9 | 69 | 51.5 | > 75 | > 100 | > 100 µM | > 100 |  | > 100 |  | > 100 |  |  |  |  |
| Cc1[nH]c2ccccc2c1C1=CC(=O)N(c2ccccc2)C1=O | 31.5 | > 100 |  | 34.5 | 21.9 | 18.3 | 26.6 | 27.1 | > 100 | 60.7 µM | 83.9 |  | > 100 |  | > 100 |  |  |  |  |
| CCOC(=O)c1c(NC(=O)c2ccc(Br)cc2)sc2c1CCCC2 | > 100 | > 100 |  |  | > 100 |  | > 100 | > 100 |  | > 100 µM | > 100 | > 100 |  |  | > 100 |  |  |  |  |
| c1ccc(CSC(SCc2ccccc2)c2ccc3c(c2)OCO3)cc1 | > 10 | > 10 | > 10 | > 10 | > 10 | > 10 | > 10 | > 10 | > 10 | > 10 µM | > 10 |  | > 10 |  |  |  |  |  |  |
| CN(C)Cc1[nH]c2ccccc2c1C(=O)c1ccccc1 | > 100 | > 100 | > 100 | > 100 | > 100 |  |  | > 100 |  | > 100 µM |  | > 100 |  |  |  |  |  |  |  |
| Cn1nc(C(=O)N2CC(CCl)c3c2cc([N+](=O)[O-])c2ccccc32)cc1NC(=O)Nc1cc(C(=O)N2CC(CCl)c3c2cc([N+](=O)[O-])c2ccccc32)nn1C (stereo not drawn) | > 100 | > 100 | > 100 | > 100 | > 100 |  |  | 70.2 | > 100 | > 100 µM | > 100 |  | > 100 |  | > 100 |  |  |  |  |
| CC1(C)N=C(Oc2ccccc2)n2nccc2N1 | > 100 | > 100 | > 100 | > 100 | > 100 | > 100 | > 100 | > 100 | > 100 | > 100 µM | > 100 | > 100 |  |  |  |  |  |  |  |
| O=C1Cc2ccccc2CCc2ccsc21 | > 100 | > 100 | > 100 | > 100 | > 100 | > 100 | > 100 | > 100 | > 100 | > 100 µM | > 100 | > 100 |  |  |  |  |  |  |  |
| COc1nc(OC)nc(Sc2ccc(Sc3ccc(Sc4nc(OC)nc(OC)n4)cc3)cc2)n1 | > 100 | > 100 | > 100 | > 100 | > 100 | > 100 | > 100 | > 100 | > 100 | > 100 µM | > 100 | > 100 |  |  |  |  |  |  |  |
